Laboratory results as given in patent publication US10316049B2, “Tank-binding kinase inhibitor compounds” (Gilead Sciences, Inc., priority 2015, dated 2019).

Columns and labels:
[1] = molecular target: T1, IKKε (Homo sapiens, UniProt Q14164); experiment: TR-FRET enzymatic activity assay, IKKε; assay type: biochemical; details: read-out: IKKϵ IC50; also: full length recombinant IKKε at 0.3 nM
T1 construct: TBK1 and IKKε were expressed and purified as full length recombinant proteins; made in house
T1 sequence (Q14164 1-716): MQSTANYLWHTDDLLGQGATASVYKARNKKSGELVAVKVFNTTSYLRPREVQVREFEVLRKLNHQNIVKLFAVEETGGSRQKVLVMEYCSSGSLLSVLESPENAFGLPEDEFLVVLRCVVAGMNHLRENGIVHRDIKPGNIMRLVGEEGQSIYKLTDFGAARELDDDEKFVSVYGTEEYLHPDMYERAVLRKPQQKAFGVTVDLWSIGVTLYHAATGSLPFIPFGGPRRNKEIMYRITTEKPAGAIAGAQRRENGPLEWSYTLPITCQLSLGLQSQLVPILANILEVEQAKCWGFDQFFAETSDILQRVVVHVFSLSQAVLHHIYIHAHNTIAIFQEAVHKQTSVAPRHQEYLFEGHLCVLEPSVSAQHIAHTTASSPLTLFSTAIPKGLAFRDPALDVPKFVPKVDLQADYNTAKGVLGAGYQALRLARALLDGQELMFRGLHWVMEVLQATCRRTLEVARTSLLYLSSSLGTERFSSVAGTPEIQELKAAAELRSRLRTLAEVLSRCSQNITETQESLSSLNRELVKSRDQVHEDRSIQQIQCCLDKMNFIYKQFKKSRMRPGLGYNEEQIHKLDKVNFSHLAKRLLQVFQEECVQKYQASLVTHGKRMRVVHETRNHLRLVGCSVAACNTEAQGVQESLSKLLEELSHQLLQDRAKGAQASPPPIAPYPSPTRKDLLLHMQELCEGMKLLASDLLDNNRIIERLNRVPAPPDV
How it was run: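 Full-length recombinant IKKε phosphorylated a biotinylated Ser/Thr peptide for 240 min at 25 °C; EDTA stop. Phospho-peptide detected by TR-FRET with streptavidin-XL665 (125 nM) and Eu-cryptate anti-phospho antibody. Normalised to staurosporine and DMSO controls; IC50 from four-parameter fit, geometric mean of ≥4 runs.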

[2] = molecular target: T2, TBK1 (Homo sapiens, UniProt Q9UHD2); experiment: TR-FRET enzymatic activity assay, TBK1; assay type: biochemical; also: full length recombinant TBK1 at 2.5 nM
T2 construct: TBK1 and IKKε were expressed and purified as full length recombinant proteins; made in house
T2 sequence (Q9UHD2 1-729): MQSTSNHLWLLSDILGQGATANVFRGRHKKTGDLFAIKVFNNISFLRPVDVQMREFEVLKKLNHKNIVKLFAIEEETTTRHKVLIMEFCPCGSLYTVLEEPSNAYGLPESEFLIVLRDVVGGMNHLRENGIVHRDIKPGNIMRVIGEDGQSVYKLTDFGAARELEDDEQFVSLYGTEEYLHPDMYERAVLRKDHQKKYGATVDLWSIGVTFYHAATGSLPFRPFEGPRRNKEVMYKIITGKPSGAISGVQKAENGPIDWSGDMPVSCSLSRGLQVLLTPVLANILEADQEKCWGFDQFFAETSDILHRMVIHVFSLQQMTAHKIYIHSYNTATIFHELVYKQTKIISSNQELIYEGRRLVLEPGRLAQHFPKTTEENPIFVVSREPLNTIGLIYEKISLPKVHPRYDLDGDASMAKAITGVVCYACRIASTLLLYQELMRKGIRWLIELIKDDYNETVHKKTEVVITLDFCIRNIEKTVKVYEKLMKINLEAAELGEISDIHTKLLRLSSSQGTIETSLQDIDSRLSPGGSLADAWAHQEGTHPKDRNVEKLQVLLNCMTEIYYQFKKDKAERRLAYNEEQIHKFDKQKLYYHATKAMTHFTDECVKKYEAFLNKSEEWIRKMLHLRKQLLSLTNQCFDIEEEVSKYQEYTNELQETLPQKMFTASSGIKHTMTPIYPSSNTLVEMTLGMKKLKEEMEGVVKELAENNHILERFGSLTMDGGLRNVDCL
How it was run: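 Full-length recombinant enzymes phosphorylated a biotinylated Ser/Thr peptide for 240 min at 25 °C, stopped with EDTA. Phosphopeptide detected by TR-FRET (streptavidin XL665, Eu-cryptate anti-phospho antibody). IC50 from four-parameter fits normalized to 1 μM staurosporine and DMSO controls, as geometric means of at least four determinations.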

Row | Compound | IC50 [1] | IC50 [2]
1 | N#Cc1cc(-c2ccnc(NC(=O)[C@H]3[C@@H]4CNC[C@@H]43)c2)ccc1OC1CCOCC1 [Example 124, (1R,5S,6R-rel)-N-(4-(3-cyano-4-((tetrahydro-2H-pyran-4-yl)oxy)phenyl)pyridin-2-yl)-3-azabicyclo[3.1.0]hexane-6-carboxamide] | 316 nM | 628 nM
2 | Cn1cc([C@H]2C[C@@H]2C(=O)Nc2cc(-c3ccc(O[C@H]4CCN(C(=O)CO)C[C@H]4F)c(C#N)c3)ccn2)cn1 [Example 126, (1S,2S)—N-(4-(3-Cyano-4-(((3R,4S)-3-fluoro-1-(2-hydroxyacetyl)piperidin-4-yl)oxy)phenyl)pyridin-2-yl)-2-(1-methyl-1H-pyrazol-4-yl)cyclopropane-1-carboxamide] | 14 nM | 5.7 nM
3 | N#Cc1cc(-c2cc(NC(=O)[C@@H]3C[C@H]3c3cccnc3)ncn2)ccc1O[C@H]1CCN(C(=O)CO)CC1(F)F [Example 129, (1,2-Trans)-N-(6-(3-cyano-4-(((S)-3,3-difluoro-1-(2-hydroxyacetyl)piperidin-4-yl)oxy)phenyl)pyrimidin-4-yl)-2-(pyridin-3-yl)cyclopropane-1-carboxamide] | 32.2 nM | 9.3 nM
4 | Cn1cc([C@@H]2C[C@H]2C(=O)Nc2cc(-c3ccc(O[C@H]4CCN(C(=O)[C@@H](O)CO)C[C@H]4F)c(C#N)c3)ccn2)cn1 [Example 130, (1,2-Trans)-N-(4-(3-cyano-4-(((3R,4S)-1-((S)-2,3-dihydroxypropanoyl)-3-fluoropiperidin-4-yl)oxy)phenyl)pyridin-2-yl)-2-(1-methyl-1H-pyrazol-4-yl)cyclopropane-1-carboxamide] | 15.6 nM | 6.1 nM
5 | Cn1cc([C@@H]2C[C@H]2C(=O)Nc2cc(-c3ccc(O[C@H]4CCN(C(=O)[C@@H](O)CO)CC4(F)F)c(C#N)c3)ccn2)cn1 [Example 131, (1,2-Trans)-N-(4-(3-cyano-4-(((S)-1-((S)-2,3-dihydroxypropanoyl)-3,3-difluoropiperidin-4-yl)oxy)phenyl)pyridin-2-yl)-2-(1-methyl-1H-pyrazol-4-yl)cyclopropane-1-carboxamide] | 11.6 nM | 6.6 nM
6 | Cn1cc([C@@H]2C[C@H]2C(=O)Nc2cc(-c3ccc(O[C@H]4CCN(C(=O)[C@@H](O)CO)CC4(F)F)c(C#N)c3)ncn2)cn1 [Example 132, (1,2-Trans)-N-(6-(3-cyano-4-(((S)-1-((S)-2,3-dihydroxypropanoyl)-3,3-difluoropiperidin-4-yl)oxy)phenyl)pyrimidin-4-yl)-2-(1-methyl-1H-pyrazol-4-yl)cyclopropane-1-carboxamide] | 12.3 nM | 4.7 nM
7 | N#Cc1cc(-c2ccnc(NC(=O)[C@@H]3C[C@H]3c3cccnc3)c2)ccc1O[C@H]1CCN(C(=O)[C@@H](O)CO)CC1(F)F [Example 133, (1,2-Trans)-N-(4-(3-cyano-4-(((S)-1-((S)-2,3-dihydroxypropanoyl)-3,3-difluoropiperidin-4-yl)oxy)phenyl)pyridin-2-yl)-2-(pyridin-3-yl)cyclopropane-1-carboxamide] | 9.9 nM | 6.4 nM
8 | N#Cc1cc(-c2ccnc(NC(=O)[C@@H]3C[C@H]3c3cccnc3)c2)ccc1O[C@H]1CCN(C(=O)CO)CC1(F)F [Example 134, (1,2-Trans)-N-(4-(3-cyano-4-(((S)-3,3-difluoro-1-(2-hydroxyacetyl)piperidin-4-yl)oxy)phenyl)pyridin-2-yl)-2-(pyridin-3-yl)cyclopropane-1-carboxamide] | 10.9 nM | 7.4 nM

The remaining lines, values ahead:

Row | IC50 [1] | IC50 [2] | Compound
9 | 27.4 nM | 21.4 nM | N#Cc1cc(-c2ccnc(NC(=O)[C@@H]3C[C@H]3c3cccnc3)c2)ccc1O[C@H]1CCN(C(=O)CO)C[C@H]1F [Example 135, (1R,2R)—N-(4-(3-cyano-4-(((3R,4S)-3-fluoro-1-(2-hydroxyacetyl)piperidin-4-yl)oxy)phenyl)pyridin-2-yl)-2-(pyridin-3-yl)cyclopropane-1-carboxamide]
10 | 10.4 nM | 3.5 nM | N#Cc1cc(-c2ccnc(NC(=O)[C@H]3C[C@@H]3c3cccnc3)c2)ccc1O[C@H]1CCN(C(=O)CO)C[C@H]1F [Example 136, (1S,2S)—N-(4-(3-cyano-4-(((3R,4S)-3-fluoro-1-(2-hydroxyacetyl)piperidin-4-yl)oxy)phenyl)pyridin-2-yl)-2-(pyridin-3-yl)cyclopropane-1-carboxamide]
11 | 16.1 nM | 15.8 nM | N#Cc1cc(-c2ccnc(NC(=O)[C@@H]3C[C@H]3c3cccnc3)c2)ccc1O[C@H]1CCN(C(=O)[C@@H](O)CO)CC1(F)F [Example 139, (1R,2R)—N-(4-(3-cyano-4-(((S)-1-((S)-2,3-dihydroxypropanoyl)-3,3-difluoropiperidin-4-yl)oxy)phenyl)pyridin-2-yl)-2-(pyridin-3-yl)cyclopropane-1-carboxamide]
12 | 5.9 nM | 4.6 nM | N#Cc1cc(-c2ccnc(NC(=O)[C@H]3C[C@@H]3c3cccnc3)c2)ccc1O[C@H]1CCN(C(=O)[C@@H](O)CO)CC1(F)F [Example 140, (1S, 2S)—N-(4-(3-cyano-4-(((S)-1-((S)-2,3-dihydroxypropanoyl)-3,3-difluoropiperidin-4-yl)oxy)phenyl)pyridin-2-yl)-2-(pyridin-3-yl)cyclopropane-1-carboxamide]
13 | 11.2 nM | 17.3 nM | N#Cc1cc(-c2ccnc(NC(=O)[C@@H]3C[C@H]3c3cccnc3)c2)ccc1O[C@H]1CCN(C(=O)CO)CC1(F)F [Example 141, (1R,2R)—N-(4-(3-cyano-4-(((S)-3,3-difluoro-1-(2-hydroxyacetyl)piperidin-4-yl)oxy)phenyl)pyridin-2-yl)-2-(pyridin-3-yl)cyclopropane-1-carboxamide]
14 | 6 nM | 5.7 nM | N#Cc1cc(-c2ccnc(NC(=O)[C@H]3C[C@@H]3c3cccnc3)c2)ccc1O[C@H]1CCN(C(=O)CO)CC1(F)F [Example 142, (1S,2S)—N-(4-(3-cyano-4-(((S)-3,3-difluoro-1-(2-hydroxyacetyl)piperidin-4-yl)oxy)phenyl)pyridin-2-yl)-2-(pyridin-3-yl)cyclopropane-1-carboxamide]
15 | 44.3 nM | 19.9 nM | Cn1cc([C@@H]2C[C@H]2C(=O)Nc2cc(-c3ccc(O[C@H]4CCN(C(=O)CO)C[C@H]4F)c(C#N)c3)ncn2)cn1 [Example 143, (1,2-Trans)-N-(6-(3-cyano-4-(((3R,4S)-3-fluoro-1-(2-hydroxyacetyl)piperidin-4-yl)oxy)phenyl)pyrimidin-4-yl)-2-(1-methyl-1H-pyrazol-4-yl)cyclopropane-1-carboxamide]
16 | 9 nM | 7.1 nM | N#Cc1cc(-c2cc(NC(=O)[C@@H]3C[C@H]3c3cccnc3)ncn2)ccc1O[C@H]1CCN(C(=O)[C@@H](O)CO)CC1(F)F [Example 144, (1,2-Trans)-N-(6-(3-cyano-4-(((S)-1-((S)-2,3-dihydroxypropanoyl)-3,3-difluoropiperidin-4-yl)oxy)phenyl)pyrimidin-4-yl)-2-(pyridin-3-yl)cyclopropane-1-carboxamide]
17 | > 1000 nM | > 1000 nM | Cn1cnc(C2CC2C(=O)Nc2cc(-c3ccc(O[C@H]4CCN(C(=O)CO)C[C@H]4F)c(C#N)c3)ccn2)n1 (stereo partly drawn) [Example 145, N-(4-(3-Cyano-4-(((3R,4S)-3-fluoro-1-(2-hydroxyacetyl)piperidin-4-yl)oxy)phenyl)pyridin-2-yl)-2-(1-methyl-1H-1,2,4-triazol-3-yl)cyclopropane-1-carboxamide]
